Experimental findings from US9951040B2, “1,3,5 -triazine based PI3K inhibitors as anticancer agents and a process for the preparation thereof” (Council of Scientific and Industrial Research, priority 2014, dated 2018) are described below.

SMILES strings stand for the structures. Like-named read-outs stand apart in the source and are kept apart here.

In this assay the target is PI3K alpha (Homo sapiens, UniProt P42336). As to the kind of experiment: PI3K-α assay (ADP-Glo enzyme inhibition). Type of assay: biochemical. To be noted: at 500 nm. On the procedure:
Compounds were evaluated for their ability to inhibit class I PI3-kinase enzyme alpha as given below. PI3K-α Assay: PI3K alpha (diluted in 12.5 mM Glycine-NaOH (pH 8.5), 50 mM KCl, 2.5 mM MgCl2, 1 mM DTT, 0.05% CHAPS) is assayed in total volume of 20 ul containing 12.5 mM glycine-NaOH (pH 8.5), 50 mM KCl, 2.5 mM MgCl2, 1 mM DTT, 0.05% CHAPS, 0.01 mM ATP and 0.05 mM diC8 PIP2. The enzyme is assayed for 80 min after which 20 ul of ADP-Glo reagent is added. After a further incubation of 40 min, 40 ul of Kinase Detection Buffer is added. The assays are incubated for 40 min and then read on PerkinElmer Envision for 1 sec/well.

Setting [1] is: read-out: In vitro PI3K α % of inhibition.
[2] abbreviates: read-out: inhibition against PI3K alpha.

Sequence of PI3K alpha (P42336 whole entry, species assumed): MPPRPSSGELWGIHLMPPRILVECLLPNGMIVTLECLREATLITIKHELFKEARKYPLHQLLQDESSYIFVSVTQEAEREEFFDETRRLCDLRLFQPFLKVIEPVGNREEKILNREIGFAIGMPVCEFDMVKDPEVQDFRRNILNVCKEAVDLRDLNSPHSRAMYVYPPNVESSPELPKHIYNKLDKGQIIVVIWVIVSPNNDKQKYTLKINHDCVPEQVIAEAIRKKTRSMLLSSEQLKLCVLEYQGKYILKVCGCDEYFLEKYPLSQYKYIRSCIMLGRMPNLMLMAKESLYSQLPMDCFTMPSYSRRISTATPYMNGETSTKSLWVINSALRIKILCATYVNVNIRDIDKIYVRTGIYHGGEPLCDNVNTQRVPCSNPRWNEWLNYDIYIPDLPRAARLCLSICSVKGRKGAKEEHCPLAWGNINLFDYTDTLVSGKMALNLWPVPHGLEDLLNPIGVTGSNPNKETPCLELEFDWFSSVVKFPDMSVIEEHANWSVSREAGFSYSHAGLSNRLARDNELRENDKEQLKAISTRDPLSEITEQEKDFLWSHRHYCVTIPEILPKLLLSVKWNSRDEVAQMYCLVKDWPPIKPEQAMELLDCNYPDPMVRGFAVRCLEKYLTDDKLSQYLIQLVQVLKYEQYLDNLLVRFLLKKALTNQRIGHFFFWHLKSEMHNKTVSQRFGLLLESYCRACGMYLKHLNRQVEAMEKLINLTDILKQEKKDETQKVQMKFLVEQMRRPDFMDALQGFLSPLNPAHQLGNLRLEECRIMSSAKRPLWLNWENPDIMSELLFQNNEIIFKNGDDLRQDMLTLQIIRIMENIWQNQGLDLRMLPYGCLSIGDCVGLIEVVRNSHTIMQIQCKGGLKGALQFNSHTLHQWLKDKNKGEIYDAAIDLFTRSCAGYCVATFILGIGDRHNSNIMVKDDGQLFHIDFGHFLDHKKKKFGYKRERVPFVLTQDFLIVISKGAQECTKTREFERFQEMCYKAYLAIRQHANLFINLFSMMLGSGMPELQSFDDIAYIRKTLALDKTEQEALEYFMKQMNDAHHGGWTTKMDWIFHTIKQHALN
Sequence of PI3K alpha (P27986 whole entry partner, species assumed): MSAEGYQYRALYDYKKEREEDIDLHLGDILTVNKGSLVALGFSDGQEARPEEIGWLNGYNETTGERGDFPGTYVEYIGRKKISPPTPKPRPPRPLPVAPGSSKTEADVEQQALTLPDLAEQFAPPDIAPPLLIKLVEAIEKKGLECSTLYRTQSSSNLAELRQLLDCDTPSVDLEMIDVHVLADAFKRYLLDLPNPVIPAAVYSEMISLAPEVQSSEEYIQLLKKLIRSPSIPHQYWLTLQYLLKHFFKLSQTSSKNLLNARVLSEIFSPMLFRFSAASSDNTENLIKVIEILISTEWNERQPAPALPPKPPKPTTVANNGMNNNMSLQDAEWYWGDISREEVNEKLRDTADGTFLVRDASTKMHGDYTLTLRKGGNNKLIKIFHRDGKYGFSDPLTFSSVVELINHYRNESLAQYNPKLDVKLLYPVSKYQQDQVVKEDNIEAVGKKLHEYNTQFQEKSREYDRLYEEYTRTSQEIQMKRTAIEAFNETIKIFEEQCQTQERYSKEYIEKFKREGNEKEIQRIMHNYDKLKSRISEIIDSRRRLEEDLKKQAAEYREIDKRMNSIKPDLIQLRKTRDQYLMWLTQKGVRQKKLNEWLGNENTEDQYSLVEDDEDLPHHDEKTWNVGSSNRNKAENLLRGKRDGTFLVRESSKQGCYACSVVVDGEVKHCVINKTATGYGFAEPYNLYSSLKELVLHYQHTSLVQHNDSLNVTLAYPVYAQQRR

On to `FC(F)(F)c1ccccc1NC1CCN(c2nc(N3CCOCC3)nc(-n3cnc4ccccc43)n2)CC1` [1B40, 1-(4-(1H-benzo[d]imidazol-1-yl)-6-morpholino-1,3,5-triazin-2-yl)-N-(2-(trifluoromethyl)phenyl)piperidin-4-amine], for which the inhibition (commonly how much of the control response was suppressed) at 0.5 µM under setting [1] lay within 50 to 70%.

Turning to `Fc1ccc(NC2CCN(c3nc(N4CCOCC4)nc(-n4cnc5ccccc54)n3)CC2)cc1` [1B37, 1-(4-(1H-benzo[d]imidazol-1-yl)-6-morpholino-1,3,5-triazin-2-yl)-N-(4-fluorophenyl)piperidin-4-amine], the inhibition at 0.5 µM is > 70% under setting [1] and > 70% under setting [2]. In the case of `O=C(N(C(=O)C(F)(F)F)c1nc(N2CCOCC2)nc(N2CCC(Oc3ccccc3)CC2)n1)C(F)(F)F` [1A12, 2,2,2-trifluoro-N-(4-morpholino-6-(4-phenoxypiperidin-1-yl)-1,3,5-triazin-2-yl)-N-(2,2,2-trifluoroacetyl)acetamide], the inhibition at 0.5 µM under setting [1] fell in the range of 50 to 70%.

Consider `FC(F)(F)c1ccc(OC2CCN(c3nc(N4CCOCC4)nc(-n4cnc5ccccc54)n3)CC2)cc1` [1B15, 4-(4-(1H-benzo[d]imidazol-1-yl)-6-(4-(4-(trifluoromethyl)phenoxy)piperidin-1-yl)-1,3,5-triazin-2-yl)morpholine], for which the inhibition at 0.5 µM was > 70% under setting [1] and > 70% under setting [2]. Regarding `Fc1cccc(OC2CCN(c3nc(N4CCOCC4)nc(-n4c(C(F)F)nc5ccccc54)n3)CC2)c1` [1B8, 4-(4-(2-(difluoromethyl)-1H-benzo[d]imidazol-1-yl)-6-(4-(3-fluorophenoxy)piperidin-1-yl)-1,3,5-triazin-2-yl)morpholine], the inhibition at 0.5 µM is > 70% under setting [1] and > 70% under setting [2]. As for `CN(c1ccc(F)cc1)c1nc(N2CCOCC2)nc(N2CCC(Oc3ccc(F)cc3)CC2)n1` [1A3, 4-(4-(4-fluorophenoxy)piperidin-1-yl)-N-(4-fluorophenyl)-N-methyl-6-morpholino-1,3,5-triazin-2-amine], the inhibition at 0.5 µM is > 70% under setting [1] and > 70% under setting [2]. Regarding `FC(F)(F)Oc1ccc(OC2CCN(c3nc(N4CCOCC4)nc(N(c4ccccc4)c4ccccc4)n3)CC2)cc1` [1A20, 4-morpholino-N,N-diphenyl-6-(4-(4-(trifluoromethoxy)phenoxy)piperidin-1-yl)-1,3,5-triazin-2-amine], under setting [1], the inhibition at 0.5 µM lay within 50 to 70%. Take `Clc1ccccc1NC1CCN(c2nc(N3CCOCC3)nc(-n3cnc4ccccc43)n2)CC1` [1B39, 1-(4-(1H-benzo[d]imidazol-1-yl)-6-morpholino-1,3,5-triazin-2-yl)-N-(2-chlorophenyl)piperidin-4-amine]: the inhibition at 0.5 µM under setting [1] lay in the range of 50 to 70%. Same read-out and setting: as for `Fc1ccc2c(c1)ncn2-c1nc(N2CCOCC2)nc(N2CCC(Oc3ccc(C(F)(F)F)cc3)CC2)n1` [1B14, 4-(4-(5-fluoro-1H-benzo[d]imidazol-1-yl)-6-(4-(4-(trifluoromethyl)phenoxy)piperidin-1-yl)-1,3,5-triazin-2-yl)morpholine], the figure is 50 to 70%. Regarding `FC(F)c1cc2ccccc2n1-c1nc(N2CCOCC2)nc(N2CCC(Nc3ccc(C(F)(F)F)cc3)CC2)n1` [1B49, 1-(4-(2-(difluoromethyl)-1H-indol-1-yl)-6-morpholino-1,3,5-triazin-2-yl)-N-(4-(trifluoromethyl)phenyl)piperidin-4-amine], the inhibition at 0.5 µM runs as follows: under setting [1], > 70%; under setting [2], > 70%. In the case of `Fc1ccc(OC2CCN(c3nc(N4CCOCC4)nc(-n4cnc5ccccc54)n3)CC2)cc1` [1B17, 4-(4-(1H-benzo[d]imidazol-1-yl)-6-(4-(4-fluorophenoxy)piperidin-1-yl)-1,3,5-triazin-2-yl)morpholine], the inhibition at 0.5 µM under setting [1] lay within 50 to 70%. The same measure, in the same setting: as for `CN(C)c1nc(N2CCOCC2)nc(N2CCC(Oc3ccc(F)cc3)CC2)n1` [1A17, 4-(4-(4-fluorophenoxy)piperidin-1-yl)-N,N-dimethyl-6-morpholino-1,3,5-triazin-2-amine], the figure is 50 to 70%. Regarding `Fc1ccc(N(c2ccc(F)cc2)C2CCN(c3nc(N4CCOCC4)nc(-n4c(C(F)F)nc5ccccc54)n3)CC2)cc1` [1B41, 1-(4-(2-(difluoromethyl)-1H-benzo[d]imidazol-1-yl)-6-morpholino-1,3,5-triazin-2-yl)-N,N-bis(4-fluorophenyl)piperidin-4-amine], the inhibition at 0.5 µM runs as follows: under setting [1], > 70%; under setting [2], > 70%. For `Cc1ccc(OC2CCN(c3nc(N4CCOCC4)nc(-n4cnc5cc(F)ccc54)n3)CC2)cc1` [1B13, 4-(4-(5-fluoro-1H-benzo[d]imidazol-1-yl)-6-(4-(p-tolyloxy)piperidin-1-yl)-1,3,5-triazin-2-yl)morpholine], the inhibition at 0.5 µM under setting [1] fell in the range of 50 to 70%. With `CN(C(=O)C(F)(F)F)c1nc(N2CCOCC2)nc(N2CCC(Oc3ccc(F)cc3)CC2)n1` [1A15, 2,2,2-trifluoro-N-(4-(4-(4-fluorophenoxy)piperidin-1-yl)-6-morpholino-1,3,5-triazin-2-yl)-N-methylacetamide], the inhibition at 0.5 µM is, setting by setting: under setting [1], > 70%; under setting [2], > 70%. Consider `O=C(N(C(=O)C(F)(F)F)c1nc(N2CCOCC2)nc(N2CCC(Oc3ccc(F)cc3)CC2)n1)C(F)(F)F` [1A13, 2,2,2-trifluoro-N-(4-(4-(4-fluorophenoxy)piperidin-1-yl)-6-morpholino-1,3,5-triazin-2-yl)-N-(2,2,2-trifluoroacetyl)acetamide], for which, under setting [1], the inhibition at 0.5 µM is 50 to 70%.

For the molecule `O=C(N(c1ccccc1)c1nc(N2CCOCC2)nc(N2CCC(Oc3ccc(C(F)(F)F)cc3)CC2)n1)C(F)(F)F` [1A7, 2,2,2-trifluoro-N-(4-morpholino-6-(4-(4-(trifluoromethyl)phenoxy)piperidin-1-yl)-1,3,5-triazin-2-yl)-N-phenylacetamide], the inhibition at 0.5 µM under setting [1] was 50 to 70%. On the same count and under the same terms, the figure for `O=C(N(c1ccccc1)c1nc(N2CCOCC2)nc(N2CCC(Oc3ccccc3)CC2)n1)C(F)(F)F` [1A4, 2,2,2-trifluoro-N-(4-morpholino-6-(4-phenoxypiperidin-1-yl)-1,3,5-triazin-2-yl)-N-phenylacetamide] is 50 to 70%. Regarding `COc1ccc(NC2CCN(c3nc(N4CCOCC4)nc(-n4c(C(F)F)cc5ccccc54)n3)CC2)cc1` [1B47, 1-(4-(2-(difluoromethyl)-1H-indol-1-yl)-6-morpholino-1,3,5-triazin-2-yl)-N-(4-methoxyphenyl)piperidin-4-amine], the inhibition at 0.5 µM is, setting by setting: under setting [1], > 70%; under setting [2], > 70%. As to `FC(F)(F)Oc1ccc(NC2CCN(c3nc(N4CCOCC4)nc(-n4cnc5ccccc54)n3)CC2)cc1` [1B36, 1-(4-(1H-benzo[d]imidazol-1-yl)-6-morpholino-1,3,5-triazin-2-yl)-N-(4-(trifluoromethoxy)phenyl)piperidin-4-amine], the inhibition at 0.5 µM under setting [1] was 50 to 70%.

As to `FC(F)c1cc2ccccc2n1-c1nc(N2CCOCC2)nc(N2CCC(Nc3ccc(Cl)cc3)CC2)n1` [1B50, N-(4-chlorophenyl)-1-(4-(2-(difluoromethyl)-1H-indol-1-yl)-6-morpholino-1,3,5-triazin-2-yl)piperidin-4-amine], the inhibition at 0.5 µM under setting [1] lay in the range of 50 to 70%. Still for that read-out and setting: the figure for `FC(F)c1cc2ccccc2n1-c1nc(N2CCOCC2)nc(N2CCC(Nc3ccc(OC(F)(F)F)cc3)CC2)n1` [1B48, 1-(4-(2-(difluoromethyl)-1H-indol-1-yl)-6-morpholino-1,3,5-triazin-2-yl)-N-(4-(trifluoromethoxy)phenyl)piperidin-4-amine] is 50 to 70%; for `FC(F)(F)Oc1ccc(OC2CCN(c3nc(N4CCOCC4)nc(-n4cnc5ccccc54)n3)CC2)cc1` [1B16, 4-(4-(1H-benzo[d]imidazol-1-yl)-6-(4-(4-(trifluoromethoxy)phenoxy)piperidin-1-yl)-1,3,5-triazin-2-yl)morpholine] it is 50 to 70%. In the case of `O=C(N(c1ccc(F)cc1)c1nc(N2CCOCC2)nc(N2CCC(Oc3ccc(F)cc3)CC2)n1)C(F)(F)F` [1A6, 2,2,2-trifluoro-N-(4-(4-(4-fluorophenoxy)piperidin-1-yl)-6-morpholino-1,3,5-triazin-2-yl)-N-(4-fluorophenyl)acetamide], the inhibition at 0.5 µM is > 70% under setting [1] and > 70% under setting [2]. Take `c1ccc(OC2CCN(c3nc(N4CCOCC4)nc(N(c4ccccc4)c4ccccc4)n3)CC2)cc1` [1A18, 4-morpholino-6-(4-phenoxypiperidin-1-yl)-N,N-diphenyl-1,3,5-triazin-2-amine]: the inhibition at 0.5 µM under setting [1] fell in the range of 50 to 70%. On to `O=C(N(c1ccccc1)c1nc(N2CCOCC2)nc(N2CCC(Oc3ccccc3C(F)(F)F)CC2)n1)C(F)(F)F` [1A10, 2,2,2-trifluoro-N-(4-morpholino-6-(4-(2-(trifluoromethyl)phenoxy)piperidin-1-yl)-1,3,5-triazin-2-yl)-N-phenylacetamide], for which the inhibition at 0.5 µM reads like this: under setting [1], > 70%; under setting [2], > 70%. In the case of `FC(F)(F)c1ccccc1OC1CCN(c2nc(N3CCOCC3)nc(-n3cnc4ccccc43)n2)CC1` [1B20, 4-(4-(1H-benzo[d]imidazol-1-yl)-6-(4-(2-(trifluoromethyl)phenoxy)piperidin-1-yl)-1,3,5-triazin-2-yl)morpholine], the inhibition at 0.5 µM under setting [1] was in the range of 50 to 70%. For the molecule `COc1cccc(NC2CCN(c3nc(N4CCOCC4)nc(-n4c(C(F)F)nc5ccccc54)n3)CC2)c1` [1B31, 1-(4-(2-(difluoromethyl)-1H-benzo[d]imidazol-1-yl)-6-morpholino-1,3,5-triazin-2-yl)-N-(3-methoxyphenyl)piperidin-4-amine], the inhibition at 0.5 µM is > 70% under setting [1] and > 70% under setting [2].
